Laboratory results from ChEMBL document CHEMBL1159236, “Venezenin: a new bioactive Annonaceous acetogenin from the bark of Xylopia aromatica” (J Nat Prod, 1995).
≈ marks a conversion by molar mass, not a printed value.

Tests used:
HT-29 = assay: Cytotoxicity against human HT-29 cells after 7 hrs by MTT assay; type: functional; details: for EC50: Homo sapiens, HT-29, 7 h, read-out: ED50 (the source's name)
A549 = assay: Cytotoxicity against human A549 cells after 7 hrs by MTT assay; type: functional; details: A549, 7 h, read-out: ED50 (the source's name)
MCF7 = assay: Cytotoxicity against human MCF7 cells after 7 hrs by MTT assay; type: functional; details: for EC50: Homo sapiens, MCF7, 7 h, read-out: ED50 (the source's name)
[1] = Toxicity in brine shrimp; type: organism-based; details: artemia, in vivo
[2] = Inhibition of respiration in rat liver mitochondria assessed per mg of protein; type: functional

SMILES | EC50 (HT-29) [µg/mL] | EC50 (A549) [µg/mL] | EC50 (MCF7) [µg/mL] | ED50 (HT-29) [×10⁻⁴ ug/ml] | LC50 [1] [µg/mL] | IC50 [2] [µM] | ED50 (MCF7) [×10⁻⁵ ug/ml]
CCCCCCCCCCCC/C=C\CC[C@H]1OC(C)(C)O[C@@H]1CCCCCCC(=O)CCCCC[C@@H](O)CC1=C[C@H](C)OC1=O | 0.932 (≈ 1.44 µM) | < 0.001 | 0.347 (≈ 0.536 µM) |  |  |  | 
CCCCCCCCCCCC[C@H](O)[C@@H]1CC[C@@H]([C@@H](O)CCCCCCC(=O)CCCCC[C@@H](O)CC2=C[C@H](C)OC2=O)O1 |  | 0.00786 (≈ 0.0126 µM) |  | 3.46 | 0.84 (≈ 1.35 µM) | 1.7 | 7.47
CCCCCCCCCCCC/C=C\CC[C@@H](O)[C@H](O)CCCCCCC(O)CCCCC[C@@H](O)CC1=C[C@H](C)OC1=O (stereo partly drawn) | 2.62 (≈ 4.3 µM) | < 0.001 | 0.0572 (≈ 0.0939 µM) |  |  |  | 
CCCCCCCCCCCC[C@H](O)[C@@H]1CC[C@H]([C@H](O)CCCCCCC(=O)CCCCC[C@@H](O)CC2=C[C@H](C)OC2=O)O1 | 0.047 (≈ 0.0755 µM) | 0.0045 (≈ 0.00722 µM) | 0.056 (≈ 0.0899 µM) |  | 0.98 (≈ 1.57 µM) |  | 
COc1cccc2c1C(=O)c1c(O)c3c(c(O)c1C2=O)C[C@@](O)(C(=O)CO)C[C@@H]3O[C@H]1C[C@H](N)[C@H](O)[C@H](C)O1 [DOXORUBICIN] | 0.0392 (≈ 0.0721 µM) | 0.0092 (≈ 0.0169 µM) | 0.23 (≈ 0.423 µM) |  |  |  | 
C=C(C)[C@H]1Cc2c(ccc3c2O[C@@H]2COc4cc(OC)c(OC)cc4[C@@H]2C3=O)O1 [ROTENONE] |  |  |  |  |  | 34 | 
CCCCCCCCCCCC/C=C\CC[C@@H](O)[C@H](O)CCCCCCC(=O)CCCCC[C@@H](O)CC1=C[C@H](C)OC1=O [VENEZENIN] | 1.58 (≈ 2.6 µM) | 0.0108 (≈ 0.0178 µM) | < 0.01 |  | 9.33 (≈ 15.4 µM) |  | 
